Test results as given in BindingDB's records for doi:10.1016/1074-5521(95)90124-8 (University of California San Diego, 1995).
Structures can show the parent of a compound that is named as a salt.

Key:
[1] = molecular target: cAMP-dependent protein kinase (Oryctolagus cuniculus, UniProt Q95J97); assay: Inhibition Assay; conditions: pH 7.5
From the text: Cyclic AMP-dependent protein kinase (PKA) enzyme inhibition assay using purified recombinant C subunit of PKA (catalytic (C) subunit (cPKA)) with holoenzyme purified from rabbit muscle.

[2] = molecular target: Protein kinase C beta type (Rattus norvegicus, UniProt P68403); assay: Inhibition Assay; conditions: 30 °C
Sequence of Protein kinase C beta type (P68403 whole entry): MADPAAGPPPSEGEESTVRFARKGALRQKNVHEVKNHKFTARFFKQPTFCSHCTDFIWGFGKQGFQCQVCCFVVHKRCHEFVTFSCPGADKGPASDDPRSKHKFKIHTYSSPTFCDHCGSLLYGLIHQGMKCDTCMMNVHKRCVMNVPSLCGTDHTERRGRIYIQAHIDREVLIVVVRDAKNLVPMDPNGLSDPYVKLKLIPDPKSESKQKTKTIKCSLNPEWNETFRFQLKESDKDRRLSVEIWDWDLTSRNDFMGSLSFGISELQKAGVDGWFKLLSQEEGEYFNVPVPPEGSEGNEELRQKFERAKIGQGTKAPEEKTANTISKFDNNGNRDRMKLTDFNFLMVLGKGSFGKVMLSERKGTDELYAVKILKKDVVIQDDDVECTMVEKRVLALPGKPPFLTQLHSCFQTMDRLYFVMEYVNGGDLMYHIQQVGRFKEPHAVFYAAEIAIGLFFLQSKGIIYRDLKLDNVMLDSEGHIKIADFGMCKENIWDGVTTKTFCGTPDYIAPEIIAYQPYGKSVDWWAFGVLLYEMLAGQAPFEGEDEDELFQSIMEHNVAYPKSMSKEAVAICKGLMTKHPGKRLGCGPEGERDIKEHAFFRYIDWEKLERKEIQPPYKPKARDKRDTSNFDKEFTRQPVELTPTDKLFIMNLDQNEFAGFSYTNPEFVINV

Row | SMILES | Ki [1] [nM] | Ki [2] [µM] | Ki ([2]; pH 7.5) [µM] | Ki ([1]; 30 °C) [nM] | IC50 [2] [nM] | IC50 ([1]; 30 °C) [nM] | IC50 ([2]; pH 7.5) [nM]
1 | CN[C@@H]1C[C@H]2O[C@@](C)([C@@H]1OC)n1c3ccccc3c3c4c(c5c6ccccc6n2c5c31)C(=O)NC4 | 35 |  |  |  |  |  | 
2 | O=C(N[C@@H]1CNCCC[C@H]1OC(=O)c1cc(O)c(C(=O)c2c(O)cccc2C(=O)O)c(O)c1)c1ccc(O)cc1 [Acyclic Balanol Analog (-)-1] |  | 0.0053 |  |  |  |  | 
3 | COC(=O)c1cc(O)c(C(=O)c2c(O)cccc2C(=O)O)c(O)c1 [Benzophenone fragment, 2] |  |  | > 1000 | > 10000 |  |  | 
4 | O=C(N[C@@H]1CNCCC[C@H]1OC(=O)c1cc(O)c(C(=O)c2ccccc2O)c(O)c1)c1ccc(O)cc1 [14''-Decarboxybalanol hydrochloride, 5] |  | 5 |  | 11 | 6900 | 18 | 
5 | O=C(N[C@@H]1CNCCC[C@H]1OC(=O)c1cc(O)c(C(=O)c2ccccc2C(=O)O)c(O)c1)c1ccc(O)cc1 |  |  | 0.64 | 3.9 |  | 6.3 | 834
6 | O=C(N[C@@H]1CNCCC[C@H]1OC(=O)c1ccc(C(=O)c2c(O)cccc2C(=O)O)cc1)c1ccc(O)cc1 [4'',6''-Dideoxybalanol, 6] |  |  | 0.08 | 3.4 |  | 5.5 | 111
7 | O=C(N[C@@H]1CNCCC[C@H]1OC(=O)c1cc(O)c(C(=O)c2c(O)cccc2C(=O)O)c(O)c1)c1ccccc1 [5'-Deoxybalanol, 7] |  |  | 0.069 | 3.5 |  | 5.7 | 95

Continued, values first:

Row | Ki [1] [nM] | Ki [2] [µM] | Ki ([2]; pH 7.5) [µM] | Ki ([1]; 30 °C) [nM] | IC50 [2] [nM] | IC50 ([1]; 30 °C) [nM] | IC50 ([2]; pH 7.5) [nM] | SMILES
8 | > 10000 | > 1000 |  |  |  |  |  | O=C(N[C@@H]1CNCCC[C@H]1O)c1ccc(O)cc1 [Hexahydroazepine, 3]
9 | 48 | 31.7 |  |  |  |  |  | O=S(ONCCNC/C=C/c1ccc(Br)cc1)c1cccc2cnccc12 (stereo unspecified) [H-89, 10]
10 | 56 | > 2 |  |  |  |  |  | CCCCCCOC(=O)[C@@]1(O)CC2O[C@]1(C)n1c3ccccc3c3c4c(c5c6ccccc6n2c5c31)C(=O)NC4 [KT5720, 9]
